Test results as given in patent US7691601B2, “Medium for detecting and/or identifying of microorganisms” (priority 2003, dated 2010).

Tests used:
[1] = system: free esterases in a stool sample; assay: Coloration at the point of deposit of the stool on Salmonella detection medium (Magenta C8); type: biochemical; design: key to Deposit coloration: 0=no coloration; 0.5=trace of coloration; 1=weak coloration; 2=strong coloration; details: for Deposit coloration: Table 3
Method: (§1) Preparation of the detection medium: A volume of 250 ml of detection medium is prepared from a powdered medium having the following composition:
(§2) Melting is carried out at 100° C., and the medium is autoclaved at 121° C. for 15 minutes. The additives are then added to the medium: Magenta C8 (500 mg/l; B-7102, BIOSYNTH, Staad, Switzerland); X-glucoside (75 mg/l; B-7250, BIOSYNTH, Staad, Switzerland); cefsulodine (10 mg/l; C 4786, Sigma, St Quentin Fallavier, France) and various concentrations of the inhibitor O,O-diethyl p-nitrophenyl phosphate (Paraoxon® ethyl; CAS No. 311-45-5; 36186, Riedel-de Haën, St Quentin Fallavier, France; 0; 1; 5 or 10 mg/l).
(§3) The various detection media thus obtained are then poured into Petri dishes.
(§4) Seeding of Salmonella bacteria: 10 μl of stools are deposited onto a Petri dish, this stool suspension is mixed or not mixed with 10 μl of a suspension of Salmonella (0.5 McF) and isolated as 3 dials on a Petri dish. Various […] and various Salmonella strains originating from the applicant's collection are used according to this protocol. The Petri dishes are incubated at 37° C. for 24 hours. The appearance of a coloration at the point of deposit of the stool (“deposit” column) and at the Salmonella colony (“colony” column) is read according to a semi-quantitative scale: • 0=no coloration • 0.5=trace of coloration • 1=weak coloration • 2=strong coloration The results obtained are given in Table 1.
(§5) Melting is carried out at 100° C., and the medium is autoclaved at 121° C. for 15 minutes. The additives are then added to the medium: Magenta C8 (500 mg/l; B-7102, BIOSYNTH, Staad, Switzerland); X-glucoside (75 mg/l; B-7250, BIOSYNTH, Staad, Switzerland); cefsulodine (10 mg/l; C 4786, Sigma, St Quentin Fallavier, France) and various concentrations of the inhibitor O,O-dimethyl p-nitrophenyl phosphate (Paraoxon® methyl; CAS No. 950-35-6; Riedel-de Haën, St Quentin Fallavier, France; 5, 10, 25 mg/l).
(§6) Seeding of Salmonella bacteria: The Petri dishes are inoculated, incubated and read as in Example 1.
(§7) Preparation of the detection medium: 250 ml of the medium of Example 1, in which the O,O-diethyl p-nitrophenyl phosphate is replaced with various concentrations of O,O-di-(2-chloroethyl)-O-(3-chloro-4-methylcoumarin-7-yl)phosphate (Haloxon®; CAS No. 321-55-1; R276995, Sigma, St Quentin Fallavier, France; 0; 1; 10; 100 or 1000 mg/l), are prepared according to the method of Example 1.
(§8) The various selection media thus obtained are then poured into Petri dishes.

[2] = system: Salmonella Enteritidis; assay: Coloration of Salmonella Enteritidis colonies on detection medium; type: cell-based; design: key: 0=no coloration; 0.5=trace of coloration; 1=weak coloration; 2=strong coloration
Method: as §1, §2, §3, §4, §5, §6, §7, §8

[3] = system: Salmonella Typhi; assay: Coloration of Salmonella Typhi colonies on detection medium; type: cell-based; design: key: 0=no coloration; 0.5=trace of coloration; 1=weak coloration; 2=strong coloration
Method: as §1, §2, §3, §4, §5, §6, §7, §8

[4] = Colonies column read for stool without added strain, Salmonella detection medium; design: key: 0=no coloration; 0.5=trace of coloration; 1=weak coloration; 2=strong coloration; details: Table 3, no strain
Method: as §1, §2, §3, §4, §5, §6, §7, §8

[5] = system: free esterases in stools; assay: Coloration at the point of deposit of the stool on Candida detection medium; type: biochemical; details: summary in words
Method: as §1
(§9) Melting is carried out at 100° C., and the medium is autoclaved at 121° C. for 15 minutes. The additives are then added to the medium: Magenta C8 (500 mg/l; B-7102, BIOSYNTH, Staad, Switzerland); X-glucoside (75 mg/l; B-7250, BIOSYNTH, Staad, Switzerland); cefsulodine (10 mg/l; C 4786, Sigma, St Quentin Fallavier, France), and also the esterase inhibitor: • ? O,O-diethyl p-nitrophenyl phosphate: 5 mg/l • ? O,O-dimethyl p-nitrophenyl phosphate: 25 mg/l or • ? O,O-di-(2-chloroethyl)-O-(3-chloro-4-methylcoumarin-7-yl)phosphate: 75 mg/l
as §8
(§10) Seeding of yeast of the Candida genus: 10 μl of stools are deposited onto a Petri dish, and this stool suspension is mixed or not mixed with 10 μl of a suspension of Candida and isolated as 3 dials on a Petri dish. Various stools and various strains of Candida genus originating from the applicant's collection are used according to this protocol. The Petri dishes are incubated at 37° C. for 24 hours.
(§11) The appearance of a coloration at the point of deposit of the stool and in the Candida colonies is read according to a semi-quantitative scale: • 0=absence of coloration • 0.5=trace coloration • 1=weak coloration • 2=strong coloration.

[6] = system: Candida krusei; assay: Coloration of Candida krusei colonies on detection medium; type: cell-based; design: key: 0=absence of coloration; 0.5=trace coloration; 1=weak coloration; 2=strong coloration; details: Table 4, 75 mg/l
Method: as §1, §9, §8, §10, §11

[7] = system: Candida albicans; assay: Coloration of Candida albicans colonies on detection medium; type: cell-based; design: key: 0=absence of coloration; 0.5=trace coloration; 1=weak coloration; 2=strong coloration; details: Table 4, 75 mg/l, stool B
Method: as §1, §9, §8, §10, §11

Cc1c(Cl)c(=O)oc2cc(OP(=O)(OCCCl)OCCCl)ccc12 [O,O-di-(2-chloroethyl)-O-(3-chloro-4-methylcoumarin-7-yl) phosphate]
Deposit coloration ([1]; 1 mg/l, stool A, Salmonella Enteritidis): 1
Deposit coloration ([1]; 1 mg/l, stool A, Salmonella Paratyphi A): 1
Deposit coloration ([1]; 1 mg/l, stool A, Salmonella Typhi): 1
Deposit coloration ([1]; 1 mg/l, stool A, no strain): 1
Deposit coloration ([1]; 1 mg/l, stool B, Salmonella Enteritidis): 0
Deposit coloration ([1]; 1 mg/l, stool B, Salmonella Paratyphi A): 0
Deposit coloration ([1]; 1 mg/l, stool B, Salmonella Typhi): 0
Deposit coloration ([1]; 1 mg/l, stool B, no strain): 1
Deposit coloration ([1]; 10 mg/l, stool A, Salmonella Enteritidis): 1
Deposit coloration ([1]; 10 mg/l, stool A, Salmonella Paratyphi A): 1
Deposit coloration ([1]; 10 mg/l, stool A, Salmonella Typhi): 1
Deposit coloration ([1]; 10 mg/l, stool A, no strain): 1
Deposit coloration ([1]; 10 mg/l, stool B, Salmonella Enteritidis): 0
Deposit coloration ([1]; 10 mg/l, stool B, Salmonella Paratyphi A): 0
Deposit coloration ([1]; 10 mg/l, stool B, Salmonella Typhi): 0
Deposit coloration ([1]; 10 mg/l, stool B, no strain): 0.5
Deposit coloration ([1]; 100 mg/l, stool A, Salmonella Enteritidis): 0.5
Deposit coloration ([1]; 100 mg/l, stool A, Salmonella Paratyphi A): 0.5
Deposit coloration ([1]; 100 mg/l, stool A, Salmonella Typhi): 0.5
Deposit coloration ([1]; 100 mg/l, stool A, no strain): 0.5
Deposit coloration ([1]; 100 mg/l, stool B, Salmonella Enteritidis): 0
Deposit coloration ([1]; 100 mg/l, stool B, Salmonella Paratyphi A): 0
Deposit coloration ([1]; 100 mg/l, stool B, Salmonella Typhi): 0
Deposit coloration ([1]; 100 mg/l, stool B, no strain): 0
Deposit coloration ([1]; 1000 mg/l, stool A, Salmonella Enteritidis): 0
Deposit coloration ([1]; 1000 mg/l, stool A, Salmonella Paratyphi A): 0
Deposit coloration ([1]; 1000 mg/l, stool A, Salmonella Typhi): 0
Deposit coloration ([1]; 1000 mg/l, stool A, no strain): 0
Deposit coloration ([1]; 1000 mg/l, stool B, Salmonella Enteritidis): 0
Deposit coloration ([1]; 1000 mg/l, stool B, Salmonella Paratyphi A): 0
Deposit coloration ([1]; 1000 mg/l, stool B, Salmonella Typhi): 0
Deposit coloration ([1]; 1000 mg/l, stool B, no strain): 0
Aspecific enzymatic reactions due to the presence of free enzymes ([1]; stools, Salmonella detection medium, summary in words): greatly inhibited
Colonies coloration ([2]; Table 3, 1 mg/l, stool A): 2
Colonies coloration ([2]; Table 3, 1 mg/l, stool B): 2
Colonies coloration ([2]; Table 3, 10 mg/l, stool A): 2
Colonies coloration ([2]; Table 3, 10 mg/l, stool B): 2
Colonies coloration ([2]; Table 3, 100 mg/l, stool A): 2
Colonies coloration ([2]; Table 3, 100 mg/l, stool B): 2
Colonies coloration ([2]; Table 3, 1000 mg/l, stool A): 2
Colonies coloration ([2]; Table 3, 1000 mg/l, stool B): 2
Colonies coloration ([3]; Table 3, 1 mg/l, stool A): 1
Colonies coloration ([3]; Table 3, 1 mg/l, stool B): 1
Colonies coloration ([3]; Table 3, 10 mg/l, stool A): 1
Colonies coloration ([3]; Table 3, 10 mg/l, stool B): 1
Colonies coloration ([3]; Table 3, 100 mg/l, stool A): 1
Colonies coloration ([3]; Table 3, 100 mg/l, stool B): 1
Colonies coloration ([3]; Table 3, 1000 mg/l, stool A): 1
Colonies coloration ([3]; Table 3, 1000 mg/l, stool B): 1
Colonies coloration ([4]; 1 mg/l, stool A): 0
Colonies coloration ([4]; 1 mg/l, stool B): 0
Colonies coloration ([4]; 10 mg/l, stool A): 0
Colonies coloration ([4]; 10 mg/l, stool B): 0
Colonies coloration ([4]; 100 mg/l, stool A): 0
Colonies coloration ([4]; 100 mg/l, stool B): 0
Colonies coloration ([4]; 1000 mg/l, stool A): 0
Colonies coloration ([4]; 1000 mg/l, stool B): 0
Aspecific enzymatic reactions due to the presence of free enzymes [5]: greatly inhibited
Colonies coloration ([6]; stool A): 0.5
Colonies coloration ([6]; stool B): 0.5
Colonies coloration [7]: 0.5
